Here are results for 16 molecules from US8673950B2, “Dihydrooxazol-2-amine derivatives” (Hoffmann-LaRoche Inc., priority 2010, dated 2014).

One assay has as its target mouse TAAR1 (Mus musculus (Mouse), UniProt Q923Y8). As to the kind of experiment: Radioligand binding assay on mouse TAAR1. The conditions noted are these: mouse TAAR1, membranes of stably transfected HEK-293 cells; first value of cell mouse/rat.
Another assay has as its target rat TAAR1 (Rattus norvegicus (Rat), UniProt Q923Y9). As to the kind of experiment: Radioligand binding assay on rat TAAR1. Conditions: rat TAAR1, membranes of stably transfected HEK-293 cells; second value of cell mouse/rat. The essentials: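 Membranes from HEK293 cells stably expressing rat TAAR1, in 20 mM HEPES-NaOH pH 7.4 with 0.1 mM EDTA. Displacement of ^3[H]-(S)-4-[(ethyl-phenyl-amino)-methyl]-4,5-dihydro-oxazol-2-ylamine, nonspecific binding with 10 μM unlabeled ligand; compounds 10 pM to 10 μM in duplicate, 1 hr at 4° C. Filtration, then scintillation counting.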

mouse TAAR1, sequence (Q923Y8 whole entry): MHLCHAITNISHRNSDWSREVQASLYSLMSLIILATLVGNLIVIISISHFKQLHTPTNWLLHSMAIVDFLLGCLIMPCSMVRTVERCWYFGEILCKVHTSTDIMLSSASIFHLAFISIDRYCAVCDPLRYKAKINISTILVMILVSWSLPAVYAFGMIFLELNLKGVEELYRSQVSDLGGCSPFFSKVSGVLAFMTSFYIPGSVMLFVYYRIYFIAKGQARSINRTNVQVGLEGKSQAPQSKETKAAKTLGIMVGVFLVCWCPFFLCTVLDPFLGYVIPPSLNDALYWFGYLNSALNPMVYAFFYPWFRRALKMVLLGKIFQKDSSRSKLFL
rat TAAR1, sequence (Q923Y9 whole entry): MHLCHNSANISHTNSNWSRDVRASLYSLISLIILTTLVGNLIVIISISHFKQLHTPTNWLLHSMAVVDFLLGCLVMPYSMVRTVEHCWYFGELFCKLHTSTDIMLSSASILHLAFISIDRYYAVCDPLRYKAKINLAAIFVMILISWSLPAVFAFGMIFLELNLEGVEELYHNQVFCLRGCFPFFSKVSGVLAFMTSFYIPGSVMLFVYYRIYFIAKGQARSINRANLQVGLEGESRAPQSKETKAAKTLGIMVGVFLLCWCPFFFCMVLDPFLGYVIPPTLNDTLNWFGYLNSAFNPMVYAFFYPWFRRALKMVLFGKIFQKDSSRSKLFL

One may read the Ki as a measure of affinity in units of concentration, obtained from inhibition or displacement. Lower therefore signals tighter binding. Regarding `NC1=N[C@@H](CCc2ccc(Nc3cnc(Cl)nc3)cc2)CO1` [Example 50, {4-[2-((S)-2-Amino-4,5-dihydro-oxazol-4-yl)-ethyl]-phenyl}-(2-chloro-pyrimidin-5-yl)-amine], the Ki at mouse TAAR1 worked out at 0.0218 µM; on rat TAAR1, 0.0006 µM.

Turning to `NC1=N[C@@H](CCc2ccc(N[C@@H](c3ccc(Cl)cc3)C(F)(F)F)cc2)CO1` [Example 64, (+)-(S)-4-(4-((S)-1-(4-Chlorophenyl)-2,2,2-trifluoroethylamino)phenethyl)-4,5-dihydrooxazol-2-amine], the Ki on mouse TAAR1 was 0.063 µM; on rat TAAR1, 0.002 µM.

With `NC1=N[C@@H](CCc2ccc(Nc3cc(Cl)ncn3)cc2)CO1` [Example 32, {4-[2-((S)-2-Amino-4,5-dihydro-oxazol-4-yl)-ethyl]-phenyl}-(6-chloro-pyrimidin-4-yl)-amine], the Ki at mouse TAAR1 is 0.0019 µM; at rat TAAR1, 0.0008 µM.

Take `NC1=N[C@@H](CCc2ccc(Nc3cccc4ccccc34)cc2)CO1` [Example 2, (S)-4-(4-(Naphthalen-1-ylamino)phenethyl)-4,5-dihydrooxazol-2-amine]: the Ki worked out at 0.0021 µM on mouse TAAR1 and 0.0001 µM at rat TAAR1.

`COc1nc(Cl)cc(Nc2ccc(CC[C@H]3COC(N)=N3)cc2)n1` [Example 44, {4-[2-((S)-2-Amino-4,5-dihydro-oxazol-4-yl)-ethyl]-phenyl}-(6-chloro-2-methoxy-pyrimidin-4-yl)-amine]: the Ki at mouse TAAR1 was 0.001 µM; at rat TAAR1 it was 0.0011 µM.

`NC1=N[C@@H](CCc2ccc(Nc3cccc(C(F)(F)F)n3)cc2)CO1` [Example 26, {4-[2-((S)-2-Amino-4,5-dihydro-oxazol-4-yl)-ethyl-]-phenyl}-(6-trifluoromethyl-pyridin-2-yl)-amine]: the results for the Ki at mouse TAAR1 and at rat TAAR1 were 0.0007 µM and 0.0008 µM, respectively.

As to `NC1=N[C@@H](CCc2ccc(NC(c3ccc(Cl)cn3)C(F)(F)F)cc2)CO1` (stereo partly drawn) [Example 68, (4S)-4-(4-(1-(5-Chloropyridin-2-yl)-2,2,2-trifluoroethylamino)phenethyl)-4,5-dihydrooxazol-2-amine], the Ki on mouse TAAR1 was found to be 0.0651 µM; on rat TAAR1 it was 0.0265 µM.

With `NC1=N[C@@H](CCc2ccc(Nc3ncc(C4CC4)cn3)cc2)CO1` [Example 54, {4-[2-((S)-2-Amino-4,5-dihydro-oxazol-4-yl)-ethyl]-phenyl}-(5-cyclopropyl-pyrimidin-2-yl)-amine], the Ki on mouse TAAR1 was 0.0003 µM; at rat TAAR1, 0.0004 µM.

Consider `Cc1ccnc(Nc2ccc(CC[C@H]3COC(N)=N3)cc2)n1` [Example 48, {4-[2-((S)-2-Amino-4,5-dihydro-oxazol-4-yl)-ethyl]-phenyl}-(4-methyl-pyrimidin-2-yl)-amine], for which the figures for the Ki on mouse TAAR1 and on rat TAAR1 were 0.0166 µM and 0.0012 µM, respectively.

Consider `NC1=N[C@@H](CCc2ccc(Nc3ccc(Cl)cn3)cc2)CO1` [Example 15, {4-[2-((S)-2-Amino-4,5-dihydro-oxazol-4-yl)-ethyl]-phenyl}-(5-chloro-pyridin-2-yl)-amine], for which the Ki on mouse TAAR1 is 0.0005 µM; at rat TAAR1, 0.0001 µM.

Turning to `Cc1cncc(Nc2ccc(CC[C@H]3COC(N)=N3)cc2)n1` [Example 43, {4-[2-((S)-2-Amino-4,5-dihydro-oxazol-4-yl)-ethyl]-phenyl}-(6-methyl-pyrazin-2-yl)-amine], the figures for the Ki at mouse TAAR1 and on rat TAAR1 were 0.107 µM and 0.0046 µM, respectively.

For `NC1=N[C@@H](CCc2ccc(Nc3ccccc3)cc2)CO1` [Example 13, (S)-4-[2-(4-Phenylamino-phenyl)-ethyl]-4,5-dihydro-oxazol-2-ylamine], the Ki at mouse TAAR1 came to 0.0013 µM; on rat TAAR1 it was 0.0001 µM.

On to `NC1=N[C@@H](CCc2ccc(NC(c3cccc(F)c3)C(F)(F)F)cc2)CO1` (stereo partly drawn) [Example 66, (4S)-4-(4-(2,2,2-Trifluoro-1-(3-fluorophenyl)ethylamino)phenethyl)-4,5-dihydrooxazol-2-amine], for which the Ki at mouse TAAR1 is 0.023 µM; at rat TAAR1, 0.0064 µM.

Turning to `NC1=N[C@@H](CCc2ccc(Nc3cncc(Cl)n3)cc2)CO1` [Example 27, {4-[2-((S)-2-Amino-4,5-dihydro-oxazol-4-yl)-ethyl]-phenyl}-(6-chloro-pyrazin-2-yl)-amine], the Ki on mouse TAAR1 was 0.0182 µM; on rat TAAR1 it was 0.004 µM.

As to `C[C@@H]1OC(N)=N[C@H]1CCc1ccc(Nc2ncc(Cl)cn2)cc1` [Example 52, {4-[2-((4S,5S)-2-Amino-5-methyl-4,5-dihydro-oxazol-4-yl)-ethyl]-phenyl}-(5-chloro-pyrimidin-2-yl)-amine], the Ki at mouse TAAR1 was 0.0046 µM; on rat TAAR1 it was 0.0006 µM.

For `COc1cc(Nc2ccc(CC[C@H]3COC(N)=N3)cc2)ncn1` [Example 33, {4-[2-((S)-2-Amino-4,5-dihydro-oxazol-4-yl)-ethyl]-phenyl}-(6-methoxy-pyrimidin-4-yl)-amine], the Ki was 0.0096 µM on mouse TAAR1 and 0.0023 µM on rat TAAR1.
